Each structure is given as a SMILES string. Where “and” joins values, the source holds several entries; their conditions need not be identical. Identical values can stand only once. Calls of active or inactive are those of the source. Where only a bound is given, the exact number is not on record here.

A short description of data set [1]: Luminescence Cell-Based Dose Retest to Confirm Inhibitors of Cancer Stem Cells. [Related pubchem assays (depositor defined):AID2717, AID2721]. Format: functional, Homo sapiens. Particulars: Homo sapiens.
Data set [2] has as its target Cytochrome P450 2C19 (Homo sapiens, UniProt P33261). As to the kind of experiment: Cytochrome panel assay with activity outcomes. Panel member name: p450-cyp2c19 Compounds with AC50 equal or less than 10 uM are considered active. The data set is classed as functional.
A short description of data set [3]: Luminescence Cell-Based Dose Response HTS to Identify Inhibitors of 5'UTR Stem-Loop Driven Prion Protein mRNA Translation in H4 Neuroglioblastoma Cells. [Related pubchem assays: 1827 (Project Summary), 1813 (Primary HTS)]. The data set is classed as functional.
Data set [4] is described as follows: alpha-synuclein stem-loop luciferase translation blockers – H4 neuroglioma cells, luminescence, confirmation (AID 1988). Format: functional, cell-based.
The target of data set [5] is Cytochrome P450 3A4 (Homo sapiens, UniProt P08684).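 Also: CYP3A4 tested as one member of a cytochrome P450 panel screen.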
Chain of Cytochrome P450 3A4 (P08684 whole entry): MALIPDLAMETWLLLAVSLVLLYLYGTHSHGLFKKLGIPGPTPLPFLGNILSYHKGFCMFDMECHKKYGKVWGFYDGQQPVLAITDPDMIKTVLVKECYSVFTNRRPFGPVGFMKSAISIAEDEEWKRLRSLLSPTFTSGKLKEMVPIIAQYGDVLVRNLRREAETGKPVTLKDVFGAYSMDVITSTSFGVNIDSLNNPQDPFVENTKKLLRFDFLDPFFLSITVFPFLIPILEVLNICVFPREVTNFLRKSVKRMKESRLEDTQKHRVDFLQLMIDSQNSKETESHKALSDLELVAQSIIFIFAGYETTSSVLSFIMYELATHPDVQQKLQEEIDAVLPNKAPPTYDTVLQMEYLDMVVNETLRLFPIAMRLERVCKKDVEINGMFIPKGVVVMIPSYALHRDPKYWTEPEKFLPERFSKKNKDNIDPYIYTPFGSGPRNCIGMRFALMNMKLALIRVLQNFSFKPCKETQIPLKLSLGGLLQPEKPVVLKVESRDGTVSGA
A short description of data set [6]: NIH3T3 cell viability loss – ATP luminescence, mouse fibroblasts, counter-screen, dose response (AID 2010).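 Also: cells exposed to compound for about 90 hours before reading.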 Format: functional, cell-based. A general note: The purpose of a counterscreen is to sort out artefacts and off-target activity.
Data set [7] in a line: Trypanosoma cruzi growth suppression in host cells – NIH3T3 host cells, beta-gal luminescence, confirmation (AID 2044).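 Also: intracellular parasites grown in NIH/3T3 mouse fibroblasts as host cells; luminescent beta-galactosidase reporter signal from transgenic T. cruzi replicating inside host cells; inhibitors lower the luminescence signal.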 Format: functional, cell-based.
Data set [8] in a line: luciferase reporter signal suppression in cells – H4 neuroglioma cells, luminescence, dose response (AID 1990). Format: functional, cell-based. (In a reporter assay the amount or activity of a reporter protein is the signal.)
The test system of data set [9] is Streptococcus sp. 'group A'. As to the kind of experiment: Streptococcus pyogenes SK(-)GAS viability under kanamycin – luminescence, BacTiterGlo, confirmation, counter-screen for streptokinase expression inhibitor project, dose response (AID 1900). Format: functional, organism-based. Particulars: read-out: EC50.
The subject of data set [10] is Streptococcus. As to the kind of experiment: GAS UMAA2166 growth inhibition – luminescence, BacTiterGlo, counter-screen for streptokinase expression inhibitor project, dose response (AID 1915).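 Also: potency for reduction of bacterial viability or growth.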 Format: functional, organism-based.

Chain of Cytochrome P450 2C19 (P33261 whole entry): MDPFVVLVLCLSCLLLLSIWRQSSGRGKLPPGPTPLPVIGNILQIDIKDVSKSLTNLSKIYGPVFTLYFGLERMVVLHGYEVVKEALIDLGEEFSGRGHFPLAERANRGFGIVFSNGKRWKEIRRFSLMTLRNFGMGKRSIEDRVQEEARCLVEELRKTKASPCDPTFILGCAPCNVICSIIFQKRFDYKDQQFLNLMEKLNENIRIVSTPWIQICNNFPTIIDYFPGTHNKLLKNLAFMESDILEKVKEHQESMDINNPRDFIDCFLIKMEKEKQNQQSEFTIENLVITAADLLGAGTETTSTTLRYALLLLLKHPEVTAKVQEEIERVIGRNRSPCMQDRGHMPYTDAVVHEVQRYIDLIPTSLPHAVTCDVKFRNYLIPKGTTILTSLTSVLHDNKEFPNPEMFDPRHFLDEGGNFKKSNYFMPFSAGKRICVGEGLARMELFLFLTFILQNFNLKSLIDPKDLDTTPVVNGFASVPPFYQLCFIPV

On to `NC(=O)CC(NC(=O)Cc1cccc2ccccc12)c1ccc(NCc2ccc(F)cc2)c([N+](=O)[O-])c1` (centres undefined), for which the AC50 – broadly, the midpoint of the concentration-response curve, whichever way the signal moves – in [1] is 5.46 µM (active).

On to `COC(=O)Nc1nc2cc(SC(C)C)ccc2[nH]1`, for which the AC50 in data set [2] (read-out: AC50) was 10 µM (inconclusive).

Consider `N#CCSc1nc2c(c(=O)n1Cc1ccco1)C1(CCCC1)Cc1ccccc1-2`, for which, in data set [1], the AC50 was 0.686 µM (active).

For `O=C(CSC(=S)N1CCCCC1)c1ccccc1`, the EC50 – broadly, the concentration giving half of the maximal effect – in [3] is > 60 µM (not active); in data set [4], 10.8 µM (active).

On to `COCCn1c(=O)c(-c2cccc(Cl)c2)nc2cncnc21`, for which the AC50 in data set [5] is 15.8 µM (inconclusive).

For `Cc1ccc(S(=O)(=O)c2c(N)n(/N=C/c3ccco3)c3nc4ccccc4nc23)cc1`, the EC50 in data set [6] was > 60 µM (not active); in data set [7] it was 1.8 µM (active).

`Cn1c(=O)c2c(nc(NCCNc3nc4c(c(=O)n(C)c(=O)n4C)n3C)n2C)n(C)c1=O`: the AC50 entry in data set [2] is on record as “inconclusive”.

Consider `CSc1nc2c(c(C(F)(F)F)n1)CC(C)CC2` (centres undefined), for which, in [2] (read-out: AC50), the AC50 was 39.8 µM (inconclusive).

Turning to `Cc1c(-c2nc(N)nc(Nc3ccc(F)cc3)n2)oc2ccccc12`, the EC50 was 13.4 µM (active) in data set [6] and 2.76 µM (active) in data set [7].

`C/C(CCC(=O)OC[C@@H]1O[C@H](C#Cc2ccccc2)C=C[C@@H]1Oc1ccc(C)cc1)=N/OC[C@@H](O)[C@H]1O[C@H]2OC(C)(C)O[C@H]2[C@@H]1O`: the AC50 in data set [2] (read-out: AC50) was 6.31 µM (inconclusive).

`Cn1cnc2c(NCc3ccccc3)nc(NCCO)nc21` [OLOMOUCINE]: the AC50 in data set [5] was 15.8 µM (inconclusive).

On to `Cc1ccc(C)c(NC(S)=NN=C(S)Nc2ccc(C(C)C)cc2)c1`, for which the results for the EC50 in data set [6] and in data set [7] were > 60 µM (not active) and 2.69 µM (active), respectively.

For `Cc1nn(S(=O)(=O)c2ccc([N+](=O)[O-])cc2)c(C)c1Sc1ccccc1`, the EC50 in data set [6] is > 60 µM (not active); in data set [7], 1.16 µM (active).

Turning to `CC(C)CN1CC[C@@]2(CCCN(C(=O)c3ccco3)C2)C1`, in data set [5], the AC50 is 12.6 µM (inconclusive).

As to `CO/C(O)=C1/C(C)=Nc2ncnn2C1c1cccnc1` (centres undefined), the AC50 in data set [5] is 39.8 µM (inconclusive).

In the case of `CCCc1cc2c(n1Cc1ccc(C)cc1)C(C)C1CN(C(=O)c3ccccc3)C(C)(C(=O)OC)C21` (centres undefined), the AC50 in data set [2] (read-out: AC50) was 25.1 µM (inconclusive).

With `O=C(CSc1[nH]cnc2ncnc1-2)Nc1nnc(SCc2ccc(Cl)c(Cl)c2)s1`, the AC50 in data set [1] was 7.23 µM (active).

For `CCCCN(CC)CCCNC(=O)c1cn(-c2ccc(OC)cc2)c(=O)c2ccccc12`, the EC50 in data set [6] is > 60 µM (not active); in [7] it was 0.496 µM (active).

On to `COc1ccc(C(=O)C[n+]2nc(CNc3ccc(Br)cc3)n3c2CCCCC3)cc1`, for which the EC50 was > 60 µM (not active) in data set [6] and 0.898 µM (active) in [7].

As for `CC(=O)c1c(/N=C/N(C)C)nc(C)nc1-c1ccccc1`, the AC50 in [2] (read-out: AC50) was 25.1 µM (inconclusive).

For `COc1cccc(CN2CCCC(CNC(=O)c3ccc(F)cc3)C2)c1OC` (centres undefined), the EC50 in data set [6] was > 60 µM (inconclusive); in data set [7], 0.704 µM (active).

Consider `CCc1c(C)c(C#N)c2nc3ccccc3n2c1N1CCN(c2cc(C)ccn2)CC1`, for which the AC50 in [2] (read-out: AC50) was 10 µM (inconclusive).

Consider `CN([C@@H](Cc1ccc(OS(=O)(=O)c2cccc3cnccc23)cc1)C(=O)N1CCN(c2ccccc2)CC1)S(=O)(=O)c1cccc2cnccc12`, for which the figures for the EC50 in [6] and in data set [7] were 11.2 µM (active) and 0.4 µM (active), respectively.

`CCOc1ccc(N(C)Cc2cc(=O)oc3ccc(OC)cc23)cc1`: the 50% effective concentration (EC50) is > 60 µM (not active) in data set [6] and 0.798 µM (active) in data set [7].

In the case of `O=C(NCc1ccco1)c1cc(-c2ccc3c(c2)OCO3)on1`, the AC50 in data set [1] was 1.14 µM (active).

Regarding `CC1(C)Cc2c(sc3c2c(=N)n(Cc2ccco2)c(=O)n3Cc2ccc(Cl)cc2)CO1`, the EC50 in data set [3] was > 120 µM (not active); in data set [8] it was 14.2 µM (active); in data set [4] it was 13.8 µM (active).

For the molecule `Nc1ccc(Oc2ccccc2-c2ccccc2)cc1`, the EC50 in [3] was 9.75 µM (active); in [8], 2.08 µM (active); in [4] it was 5.17 µM (active).

For the molecule `CCCC(C(=O)OCCN(CC)CC)(c1ccccc1)c1ccccc1` [PROADIFEN], the AC50 in data set [2] (read-out: AC50) was 7.94 µM (inconclusive) and 3.98 µM (inconclusive).

As to `O=c1c(-c2cccc(F)c2)nc2cncnc2n1Cc1ccccc1`, the AC50 in data set [5] is 10 µM (inconclusive).

In the case of `Cc1ccc(Cl)cc1NC(=S)N/N=C/c1cccc2ccccc12`, the EC50 in [6] was 0.425 µM (active); in [7] it was 2.97 µM (active). Further, the AC50 in data set [1] is 0.167 µM (active).

With `CN(C)c1ccc(C2CNC(c3ccc(Cl)c([N+](=O)[O-])c3)c3[nH]c4ccccc4c32)cc1` (centres undefined), the results for the EC50 in [6] and in [7] were > 60 µM (not active) and 1.88 µM (active), respectively.

For the molecule `N#CCCn1c(=O)c(CCc2ccccc2)nc2cnc(Nc3ccccc3)nc21`, in data set [5], the AC50 was 1 µM (inconclusive).

For the molecule `Cc1cc(C)cc(NC(=O)CSc2nc3c(oc4ccccc43)c(=O)n2-c2ccccc2)c1`, the EC50 in [6] was > 60 µM (inconclusive); in data set [7], 1.26 µM (active).

Take `CCN(CC)c1nc(Nc2ccc(Cl)cc2)nc(OCC#N)n1`: the EC50 in data set [3] was 14.6 µM (active); in data set [8] it was 15 µM (active); in data set [4] it was 16 µM (active).

On to `O=C(c1ccco1)N1CCC2(CC1)CN(c1cccc(-c3ccccc3)c1)C2`, for which, in data set [2] (read-out: AC50), the AC50 is 3.98 µM (inconclusive).

As to `C=C1SC(Nc2c(C)cccc2C)=NC12CCCCC2`, the figures for the EC50 in data set [6] and in [7] were 4.83 µM (active) and 0.795 µM (active), respectively.

Take `COc1ccc(-n2nc(C(=O)NCC(=O)N3CCN(Cc4ccc5c(c4)OCO5)CC3)c3ccccc3c2=O)cc1OC`: the results for the EC50 in data set [3], in [8] and in data set [4] were > 120 µM (not active), 21.3 µM (active) and > 120 µM (not active), respectively.

For the molecule `O=C1NC[C@@H](Cc2cccc3ccccc23)N(CC2(c3ccccc3)CC2)C1=O`, the EC50 in data set [3], in data set [8] and in data set [4] was > 120 µM (not active) throughout.

As to `Cc1ccc2nc(O)c(C(c3nnnn3C(C)(C)C)N(Cc3ccco3)CC3CCCO3)cc2c1` (centres undefined), the EC50 is > 60 µM (not active) in data set [6] and 3.14 µM (active) in data set [7].

Consider `COCCNc1nc(-c2ccccc2CN(C)C)nc2ccccc12`, for which the AC50 in [5] was 15.8 µM (inconclusive).

`O=c1c2c3c(sc2nc(NCCO)n1Cc1ccco1)CCCCC3`: in [1], the AC50 is 1.8 µM (active).

`Cc1cc2c(c(=O)n1C1CC1)C(c1cccc(Cl)c1)C(C#N)=C(N)O2` (centres undefined): the EC50 in [3], in data set [8] and in data set [4] was > 120 µM (not active) throughout.

On to `CCOc1ccccc1-c1nc(-c2ccc(NC(=O)Cc3ccccc3OC)cc2)no1`, for which the EC50 in data set [6] is 10.2 µM (active); in [7] it was 1.21 µM (active).

With `CC(C)(CN1CCN(Cc2ccccc2)CC1)NS(=O)(=O)c1ccccc1`, the AC50 in data set [1] was 12.7 µM (active).

Consider `CCOC(=O)Nc1ccc(OCc2nnc3c4ccccc4c(C)nn23)cc1`, for which the EC50 is < 0.06 µM (active) in data set [9] and 0.676 µM (active) in [10].

`O=C(NC1CCCCC1)Oc1cc2oc(=O)sc2cc1Br`: the EC50 in [3], in [8] and in data set [4] was > 120 µM (not active) each time.

In the case of `COCC(=O)N1CCC[C@@]2(CCN(C(=O)Nc3cccc(F)c3)C2)C1`, in data set [5], the AC50 is 25.1 µM (inconclusive).

As to `Oc1nc2ccc(Cl)cc2c(-c2ccccc2)c1SC(=S)N1CCOCC1`, the EC50 is 0.827 µM (active) in data set [9] and 1.3 µM (active) in data set [10].

Regarding `COc1ccc(OC)c(C(c2nnnn2C(C)(C)C)N2CCc3ccccc3C2)c1` (centres undefined), the EC50 in data set [6] was 5.8 µM (active); in data set [7], 2.77 µM (active).

Consider `Cc1ccc(NC(=O)CN2CCC(NC(=O)Cc3ccccc3)CC2)cc1C`, for which, in data set [5], the AC50 was 14.1 µM (inconclusive).

In the case of `CCOC(=O)C1=C(c2ccccc2)NC(SCC(=O)Nc2ccc(C)cc2)=C(C#N)C1c1ccco1` (centres undefined), the EC50 in data set [6] was > 60 µM (not active); in data set [7], 2.91 µM (active).

With `COc1ccc(Oc2ncc3nc(-c4ccc(Cl)cc4)c(=O)n(C)c3n2)cc1`, the AC50 in data set [5] is 5.01 µM (inconclusive).

As for `CCC(C)NS(=O)(=O)c1ccc(S(=O)(=O)N(CCc2ccc(OC)c(OC)c2)Cc2cccs2)cc1` (centres undefined), the EC50 is > 60 µM (not active) in [6] and 1.72 µM (active) in data set [7].

For the origin of these results see ChEMBL document CHEMBL1201862, “PubChem BioAssay data set” (2004).
